Experimental data as given in patent US9187449B2, “Compounds with increased specificity for the treatment of glioma” (University of Tennessee Research Foundation, priority 2013, dated 2015).
Structures can show the parent of a compound that is named as a salt. Where two headings read alike, the source gives them in different places.

Experiments:
Format in all cases: cell-based
Normal astrocytes = experiment: MTT cell viability assay, normal primary astrocytes (toxicity model); conditions: primary astrocyte cultures from normal mouse brains, five days exposure, mean of triplicate experiments, read-out: Mean IC50 ± SD, Normal astrocytes
From the text: (§1) The synthesized THI analogs were screened for their efficacy against established human glioma cell lines using the MTT colorimetric assay. This assay measures cell viability by quantitating purple formazan crystal formation caused by the reduction of tetrazolium salts in metabolically active cells. The inventors performed a series of experiments to determine the best concentration range for each compound to generate a half-maximal inhibitory concentration (IC50). The IC50 value for each compound represents the mean of triplicate experiments. Primary astrocytes established from the cortices of normal mouse pups were used as the model system to represent the degree of toxicity that would be expected in normal astrocytes in the human brain. The glioma cells and normal astrocytes were exposed to escalating concentrations of each THI compound for five days and then subjected to the MTT assay. Cell viability data at each concentration was used to calculate IC50 values.

T98G = experiment: MTT cell viability assay, T98G glioma cells; conditions: human glioma cell line T98G, five days exposure, mean of triplicate experiments, read-out: Mean IC50 ± SD, T98G
From the text: as §1

LN18 = experiment: MTT cell viability assay, LN18 glioma cells; conditions: human glioma cell line LN18, five days exposure, mean of triplicate experiments, read-out: Mean IC50 ± SD, LN18
From the text: as §1

U87 = experiment: MTT cell viability assay, U87 glioma cells; conditions: human glioma cell line U87, five days exposure, mean of triplicate experiments, read-out: Mean IC50 ± SD, U87
From the text: as §1

A172 = experiment: MTT cell viability assay, A172 glioma cells; conditions: human glioma cell line A172, five days exposure, mean of triplicate experiments, read-out: Mean IC50 ± SD, A172
From the text: as §1

SMILES	IC50 (T98G) [µM]	IC50 (LN18) [µM]	IC50 (U87) [µM]	IC50 (A172) [µM]	IC50 (T98G; 120 h) [µM]	IC50 (LN18; LN-18, 120 h) [µM]	IC50 (U87; U-87 MG, 120 h) [µM]	IC50 (A172; A 172, 120 h) [µM]	IC50 (Normal astrocytes) [µM]	IC50 (Normal astrocytes; 120 h) [µM]
COc1cc2c(cc1OC)C(Cc1ccc(-c3cnccc3OC)cc1)NCC2 (stereo not shown) [EDL-291 (9)]	59.5 ± 7.61	37	66.5 ± 1.12	41.2					51.1 ± 1.38	
COc1ccncc1-c1ccc(CC2NCCc3c(OC)ccc(OC)c32)cc1 (stereo not shown) [EDL-358 (11), 5,8-dimethoxy-1-(4-(4-methoxypyridin-3-yl)benzyl)-1,2,3,4-tetrahydroisoquinoline dihydrochloride]					13.8	13.7	16.2	8.25		24.6 ± 0.79

Second part, led by results:

IC50 (T98G) [µM]	IC50 (LN18) [µM]	IC50 (U87) [µM]	IC50 (A172) [µM]	IC50 (T98G; 120 h) [µM]	IC50 (LN18; LN-18, 120 h) [µM]	IC50 (U87; U-87 MG, 120 h) [µM]	IC50 (A172; A 172, 120 h) [µM]	SMILES	IC50 (Normal astrocytes) [µM]	IC50 (Normal astrocytes; 120 h) [µM]
				10.4	5.42	8.4	5.6	COc1ccncc1-c1ccc(CCC2NCCc3c(OC)ccc(OC)c32)cc1 (stereo not shown) [EDL-360 (12), 5,8-dimethoxy-1-(4-(4-methoxypyridin-3-yl)phenethyl)-1,2,3,4-tetrahydroisoquinoline dihydrochloride]		19.7 ± 2.44
				14.8 ± 0.68	11.7 ± 0.17	10.5	15.2 ± 0.98	COc1ccncc1-c1ccc(CCCC2NCCc3c(OC)ccc(OC)c32)cc1 (stereo not shown) [EDL-361 (13), 5,8-dimethoxy-1-(3-(4-(4-methoxypyridin-3-yl)phenyl)propyl)-1,2,3,4-tetrahydroisoquinoline dihydrochloride]		11.9 ± 0.56
571 ± 50.4	392 ± 77.2	49.1 ± 5.15	65.3 ± 12					Cn1nnc2c(C(N)=O)ncn2c1=O [TMZ, reference compound]	> 1000	
